± gives the standard deviation of the averaged measurements.
Assays:
[1] = test system: Homo sapiens (human subject panel, olfactory perception); test: perceived odor familiarity rating (rating 0-100); higher = more familiar
Experimental: (§1)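 Human olfactory psychophysics. 55 healthy subjects (after excluding 6 low performers) sniffed 1 mL of each odorant diluted in paraffin oil (vials, two dilutions per molecule, 20 molecules presented twice). Each subject rated intensity, pleasantness and familiarity on a 0-100 slider, starting at 50 and required to move. Ratings were given only when the subject reported detecting a smell; per-subject ratings are averaged over subjects.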

[2] = test system: Homo sapiens (human subject panel, olfactory perception); test: perceived odor pleasantness rating (rating 0-100); higher = more pleasant
Experimental: as §1

[3] = test system: Homo sapiens (human subject panel, olfactory perception); test: perceived odor intensity rating (rating 0-100); higher = stronger perceived smell
Experimental: as §1

[4] = odor dilution in paraffin oil: 1/100,000
[5] = odor dilution in paraffin oil: 1/10,000,000
[6] = odor dilution in paraffin oil: 1/1,000
[7] = odor dilution in paraffin oil: 1/10

SMILES | perceived odor familiarity rating [1, 4] | perceived odor familiarity rating [1, 5] | perceived odor pleasantness rating [2, 4] | perceived odor pleasantness rating [2, 5] | perceived odor intensity rating [3, 4] | perceived odor intensity rating [3, 5] | perceived odor familiarity rating [1, 6] | perceived odor pleasantness rating [2, 6] | perceived odor intensity rating [3, 6] | perceived odor familiarity rating [1, 7] | perceived odor pleasantness rating [2, 7] | perceived odor intensity rating [3, 7]
COc1cc(C)ccc1O [2-Methoxy-4-methylphenol (replicate)] | 51.8 ± 31 | 38.9 ± 26 | 39.5 ± 24 | 45.5 ± 20 | 63 ± 28 | 33 ± 31 |  |  |  |  |  | 
COc1cc(C)ccc1O [2-Methoxy-4-methylphenol] | 53.6 ± 30 | 37.5 ± 32 | 39.6 ± 22 | 43.9 ± 23 | 60.2 ± 27 | 27 ± 29 |  |  |  |  |  | 
COc1ccccc1OC(C)=O [2-Methoxyphenyl acetate] | 45.5 ± 30 |  | 45.5 ± 27 |  | 56 ± 30 |  | 46.3 ± 30 | 37.4 ± 27 | 74.2 ± 20 |  |  | 
COc1cnccn1 [2-Methoxypyrazine] | 52.6 ± 30 |  | 54.8 ± 26 |  | 41.6 ± 30 |  | 51.9 ± 34 | 37.3 ± 30 | 68.3 ± 29 |  |  | 
COc1ccccc1S [2-Methoxythiophenol] | 40.6 ± 34 | 37.6 ± 30 | 15.7 ± 23 | 52.7 ± 24 | 88.2 ± 13 | 25.8 ± 22 |  |  |  |  |  | 
CCC(C)CO (stereo not given) [2-Methyl-1-butanol (replicate)] | 37.1 ± 31 |  | 44.4 ± 23 |  | 36.4 ± 31 |  | 47.1 ± 32 | 28 ± 26 | 78.8 ± 18 |  |  | 
CCC(C)CO (stereo not given) [2-Methyl-1-butanol] | 43.3 ± 31 |  | 48.6 ± 21 |  | 32.2 ± 26 |  | 43.7 ± 29 | 38.4 ± 24 | 56.2 ± 33 |  |  | 
CSc1ccoc1C [2-Methyl-3-methylthiofuran] | 48.1 ± 28 | 33 ± 24 | 24.5 ± 19 | 39.4 ± 20 | 66.8 ± 24 | 31.4 ± 28 |  |  |  |  |  | 
CCCC1CCOC(C)S1 (stereo not given) [2-Methyl-4-propyl-1,3-oxathiane] | 53.6 ± 33 | 27.9 ± 27 | 38.8 ± 30 | 51 ± 26 | 68.7 ± 25 | 22.7 ± 30 |  |  |  |  |  | 
CC1CCCCC1=O (stereo not given) [2-Methylcyclohexanone] | 33.4 ± 30 |  | 50.9 ± 22 |  | 12.6 ± 18 |  | 49.8 ± 32 | 31.6 ± 25 | 74.6 ± 25 |  |  | 
Cc1ccco1 [2-Methylfuran] | 36.9 ± 27 | 38.5 ± 24 | 52.6 ± 21 | 39.4 ± 22 | 25.1 ± 29 | 28.9 ± 27 |  |  |  |  |  | 
CCCC(C)C(=O)O (stereo not given) [2-Methylpentanoic acid] | 37.4 ± 31 | 38 ± 29 | 50 ± 25 | 37.9 ± 24 | 31.7 ± 30 | 35.6 ± 33 |  |  |  |  |  | 
CCCCCCCC(C)=O [2-Nonanone] | 39.1 ± 31 |  | 49.6 ± 23 |  | 29.4 ± 30 |  | 52.3 ± 32 | 60.3 ± 23 | 58 ± 25 |  |  | 
CC(C)C(=O)OCCOc1ccccc1 [2-Phenoxyethyl isobutyrate] |  |  |  |  |  |  | 30.3 ± 31 | 55.1 ± 26 | 27.5 ± 29 | 44 ± 30 | 43.8 ± 22 | 58.7 ± 26
CC=C(C=O)c1ccccc1 [2-Phenyl-2-butenal] | 30.9 ± 30 | 34.5 ± 24 | 36.6 ± 25 | 57.5 ± 21 | 19.8 ± 24 | 20.1 ± 29 |  |  |  |  |  | 
S=C=NCCc1ccccc1 [2-Phenylethyl isothiocyanate] | 41.3 ± 28 |  | 37.7 ± 26 |  | 38.2 ± 30 |  | 47 ± 31 | 21.3 ± 21 | 75.5 ± 20 |  |  | 
CCCCCCCCCC(C)=O [2-Undecanone] |  |  |  |  |  |  | 39.6 ± 30 | 50.4 ± 22 | 31.9 ± 28 | 49.5 ± 32 | 43.3 ± 32 | 79.4 ± 22
CC(=O)c1ccccn1 [2-acetyl pyridine] | 67.8 ± 29 |  | 53.6 ± 27 |  | 74.3 ± 22 |  | 66.9 ± 28 | 49.7 ± 28 | 79.2 ± 20 |  |  | 

SMILES | perceived odor familiarity rating [1, 4] | perceived odor familiarity rating [1, 5] | perceived odor pleasantness rating [2, 4] | perceived odor pleasantness rating [2, 5] | perceived odor intensity rating [3, 4] | perceived odor intensity rating [3, 5] | perceived odor familiarity rating [1, 6] | perceived odor pleasantness rating [2, 6] | perceived odor intensity rating [3, 6] | perceived odor familiarity rating [1, 7] | perceived odor pleasantness rating [2, 7] | perceived odor intensity rating [3, 7]
CCC(C)=O [2-butanone] | 27.4 ± 31 |  | 49.6 ± 29 |  | 19.4 ± 26 |  | 34.9 ± 32 | 43.3 ± 28 | 33 ± 33 |  |  | 
CCCCCCCCC(C)=O [2-decanone] | 30.3 ± 23 |  | 51.2 ± 26 |  | 24.6 ± 26 |  | 44 ± 29 | 49.5 ± 25 | 44.8 ± 30 |  |  | 
CCc1cnccn1 [2-ethyl pyrazine] | 34.8 ± 27 |  | 47 ± 21 |  | 31.4 ± 25 |  | 55.8 ± 34 | 37.2 ± 30 | 80 ± 19 |  |  | 
CCCCC(CC)CO (stereo not given) [2-ethyl-1-hexanol] | 43.6 ± 31 |  | 25.9 ± 23 |  | 51.2 ± 34 |  | 42.1 ± 30 | 19.4 ± 22 | 79.7 ± 19 |  |  | 
CCCCC(CC)COC(C)=O (stereo not given) [2-ethylhexyl acetate] | 32.7 ± 29 |  | 51.3 ± 22 |  | 24.6 ± 31 |  | 38.6 ± 29 | 42 ± 22 | 44.4 ± 32 |  |  | 
CCc1ccccc1O [2-ethylphenol] | 51.6 ± 33 |  | 33.2 ± 24 |  | 67.7 ± 27 |  | 64.4 ± 28 | 29.2 ± 27 | 83.3 ± 18 |  |  | 
CCCCCC(C)=O [2-heptanone] | 23.9 ± 22 |  | 51.9 ± 26 |  | 25.4 ± 27 |  | 52.7 ± 29 | 53.8 ± 25 | 71.1 ± 22 |  |  | 
CCCCC(C)O (stereo not given) [2-hexanol] | 38.1 ± 29 |  | 42.1 ± 25 |  | 47.8 ± 32 |  | 58.2 ± 28 | 42.3 ± 24 | 71.9 ± 24 |  |  | 
CCCCC(C)=O [2-hexanone] | 31.4 ± 27 |  | 48.6 ± 23 |  | 25.5 ± 31 |  | 57.6 ± 32 | 42.2 ± 24 | 71.4 ± 25 |  |  | 
CCC/C=C/C=O [2-hexenal] | 43.1 ± 31 |  | 53.1 ± 26 |  | 39.7 ± 29 |  | 41.1 ± 33 | 30.9 ± 26 | 67.4 ± 28 |  |  | 
COc1nccnc1CC(C)C [2-isobutyl-3-methoxypyrazine] | 57.7 ± 30 |  | 47.9 ± 26 |  | 71.7 ± 27 |  | 50.1 ± 31 | 31.2 ± 25 | 80.6 ± 19 |  |  | 
CC(C)CO [2-methyl-1-propanol] | 35.4 ± 28 |  | 43.5 ± 21 |  | 23.4 ± 23 |  | 38.5 ± 34 | 37.4 ± 23 | 42.5 ± 33 |  |  | 
CCCCCCC(C)=O [2-octanone] | 36.6 ± 25 |  | 52.2 ± 16 |  | 20 ± 26 |  | 51.9 ± 26 | 52.5 ± 25 | 66.8 ± 26 |  |  | 
CCCC(C)O (stereo not given) [2-pentanol] | 38.9 ± 31 |  | 42.6 ± 21 |  | 25.7 ± 23 |  | 41.8 ± 30 | 35.5 ± 26 | 50.2 ± 34 |  |  | 
OCCc1ccccc1 [2-phenylethanol] | 61.8 ± 29 |  | 63.1 ± 24 |  | 59.6 ± 29 |  | 61.9 ± 30 | 52.8 ± 30 | 70 ± 26 |  |  | 
CCC(C)C1CCCCC1=O (stereo not given) [2-sec-Butylcyclohexanone] |  |  |  |  |  |  | 44.6 ± 32 | 51 ± 24 | 56.8 ± 28 | 58.9 ± 32 | 49.3 ± 29 | 81.9 ± 17
COc1ccc(C(C)=O)cc1OC [3,4-Dimethoxyacetophenone] |  |  |  |  |  |  | 35.9 ± 26 | 51.4 ± 20 | 26.5 ± 30 | 48.6 ± 30 | 38.9 ± 26 | 61.7 ± 26

Source: the supplement of paper PMC4977894
